Patent US20240246979A1, “cGAS INHIBITORS” (Eli Lilly and Company, priority 2022, published 2024)

How the values were obtained:
cGAS [1] = biological target: T1, cGAS (Homo sapiens, UniProt Q8N884); experiment: Cellular assay to measure cGAS activity (IFNb AlphaLISA in THP1 cells stimulated by RDG-Adenovirus-GFP); type: cell-based; parameters: host or cells: THP1 cells differentiated with PMA and stimulated with RDG-Adenovirus-GFP; conditions: PMA-differentiated THP1 cells, RDG-Adenovirus-GFP at 1000 MOI; inhibition of IFNb production as marker for cGAS activity
Procedure: Cellular assay to measure cGAS activity: Use THP1 cell line from ATCC to determine inhibition of cGAS activity by test compounds in human cells. Plate cells on 96-well plates at 0.2×10^6/well and differentiate with phorbol myristate acetate (PMA) at 37° C./5% CO2. After 24 hours, replace PMA containing media with media lacking PMA and further incubate overnight. Stimulate cells were then by RDG-Adenovirus-GFP (Vector Biolabs #1768) at 1000 MOI for 4 hours prior to the addition of test compounds. After overnight incubation, transfer 10 μL of the media from each well to a new plate for IFNb analysis as a marker for cGAS activity. Measure quantification of IFNb with an IFNb AlphaLISA Detection kit (Perkin Elmer AL3133F) by mixing the acceptor beads with the cell supernatant followed by the addition of the biotinylated antibody and donor beads. Measure the relative fluorescence signal produced from the interaction of the donor and acceptor beads by a PHERAStar AlphaLISA protocol and evaluate the inhibitory effect of a compound by plotting specific inhibition of IFNb production against log concentration of the test compound. Calculate IC50 values using a 4-parameter non-linear logistic equation (y=(S0+((SInf−S0)/(1+((qAC50/x)^nHill))))).

cGAS [2] = biological target: T1, cGAS; experiment: In vitro inhibition assay of cGAS activity (cGAMP production, RapidFire mass spectrometry); type: biochemical; parameters: Insert cDNA encoding full-length of human cGAS; His6; made in house; host or cells: E. coli BL21(DE3); conditions: 10 nM recombinant human cGAS, 60 nM 75-bp dsDNA, 50 μM ATP, 50 μM GTP, 3 hrs
Procedure: Expression and Purification of Recombinant cGAS Protein: Insert cDNA encoding full-length of human cGAS into a modified bacterial expression vector containing an in-frame His6-tag. Induce the E. coli strain BL21(DE3) harboring the plasmid with 1 mM IPTG (Isopropyl β-D-1-thiogalactopyranoside) at 18° C. overnight. Purify the His6-tagged cGAS protein over HISpur Ni-NTA resin in the presence of benzonase and RNase followed by Superdex 200 size exclusion chromatography with storage buffer (50 mM Tris-HCl pH 7.5, 300 mM NaCl, 1 mM DTT, 10% glycerol).
In vitro inhibition assay of cGAS activity: Add a 5 μL mixture containing 10 mM Tris-Cl pH 7.5, 50 mM NaCl, 5 mM MgCl2, 1 mM DTT, 0.01% Triton X-100, 60 nM 75-bp dsDNA, 50 μM ATP, 50 μM GTP, 10 nM of recombinant human cGAS, and serial dilutions of a test compound in DMSO to a 384-well plate and incubate at ambient temperature for 3 hrs. Quench the reaction by the addition of 100 μL of stop solution containing 0.1% formic acid and 0.1 μM internal standard (3′3′-difluoro cGAMP). Measure the amount of cGAMP produced by RapidFire 365 mass spectrometry and evaluate inhibitory effect of a compound by plotting percent specific inhibition of cGAMP production against log concentration of the test compound. Calculate IC50 values using a 4-parameter non-linear logistic equation (y=(S0+((Sinf−S0)/(1+((qAC50/x)^nHill))))).

T1 sequence (Q8N884 whole entry): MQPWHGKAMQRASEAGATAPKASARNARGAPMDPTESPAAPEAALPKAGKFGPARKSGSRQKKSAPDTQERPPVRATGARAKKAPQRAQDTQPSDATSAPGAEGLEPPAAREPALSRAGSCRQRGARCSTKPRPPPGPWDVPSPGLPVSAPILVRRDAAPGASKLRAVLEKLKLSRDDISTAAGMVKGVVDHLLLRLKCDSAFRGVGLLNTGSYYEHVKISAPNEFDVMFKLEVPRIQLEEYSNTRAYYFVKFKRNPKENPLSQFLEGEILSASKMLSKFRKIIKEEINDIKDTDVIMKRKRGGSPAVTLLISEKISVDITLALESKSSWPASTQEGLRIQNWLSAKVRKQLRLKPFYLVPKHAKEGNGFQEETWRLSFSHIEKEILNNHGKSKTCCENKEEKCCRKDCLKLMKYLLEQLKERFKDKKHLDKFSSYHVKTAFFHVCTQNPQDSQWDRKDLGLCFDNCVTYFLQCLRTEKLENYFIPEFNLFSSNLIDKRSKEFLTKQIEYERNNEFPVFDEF

| Compound | IC50 (cGAS [1]) | IC50 (cGAS [2]) |
| --- | --- | --- |
| CC1C(=O)NCCc2[nH]c3c(Cl)c(Cl)cc(N[C@H]4CCOC4)c3c21 (mixture of isomers) [Example 61, 7,8-Dichloro-1-methyl-10-(((S)-tetrahydrofuran-3-yl)amino)-3,4,5,6-tetrahydroazepino[4,5-b]indol-2(1H)-one] | 1910 nM | 34.5 nM |
| CC1C(=O)NCCc2[nH]c3c(Cl)c(Cl)cc(OC4CCOC4)c3c21 (mixture of isomers) [Example 86, 7,8-Dichloro-1-methyl-10-((tetrahydrofuran-3-yl)oxy)-3,4,5,6-tetrahydroazepino[4,5-b]indol-2(1H)-one] | 3470 nM | 51.9 nM |
| CC(O)CC1CNC(=O)Cc2c1n(C)c1c(Cl)c(Cl)cc(CC#N)c21 (mixture of isomers) [Example 128, 2-(7,8-Dichloro-5-(2-hydroxypropyl)-6-methyl-2-oxo-1,2,3,4,5,6-hexahydroazepino[4,5-b]indol-10-yl)acetonitrile] | 217 nM | 13.6 nM |
| CCOC(=O)CC1CNC(=O)Cc2c1[nH]c1c(Cl)c(Cl)cc(-c3cnn(C)n3)c21 (racemic) [Example 4, Ethyl 2-(7,8-dichloro-10-(2-methyl-2H-1,2,3-triazol-4-yl)-2-oxo-1,2,3,4,5,6-hexahydroazepino[4,5-b]indol-5-yl)acetate] | 3570 nM | 26.2 nM |
| Cn1ncc(-c2cc(Cl)c(Cl)c3[nH]c4c(c23)CC(=O)NCC4CC(=O)O)n1 (racemic) [Example 5, 2-(7,8-Dichloro-10-(2-methyl-2H-1,2,3-triazol-4-yl)-2-oxo-1,2,3,4,5,6-hexahydroazepino[4,5-b]indol-5-yl)acetic acid] | > 10000 nM | 5.12 nM |
| Cn1ncc(-c2cc(Cl)c(Cl)c3[nH]c4c(c23)CC(=O)NCC4CCO)n1 (racemic) [Example 8, 7,8-Dichloro-5-(2-hydroxyethyl)-10-(2-methyl-2H-1,2,3-triazol-4-yl)-3,4,5,6-tetrahydroazepino[4,5-b]indol-2(1H)-one] | 420 nM | 19 nM |
| CC(=O)OCCCOc1cc(Cl)c(Cl)c2[nH]c3c(c12)C(C)C(=O)NCC3 (racemic) [Example 13, 3-((7,8-Dichloro-1-methyl-2-oxo-1,2,3,4,5,6-hexahydroazepino[4,5-b]indol-10-yl)oxy)propyl acetate] | 582 nM | 9050 nM |
| COCCNc1cc(Cl)c(Cl)c2[nH]c3c(c12)C(C)C(=O)NCC3 (racemic) [Example 46, 7,8-Dichloro-10-((2-methoxyethyl)amino)-1-methyl-3,4,5,6-tetrahydroazepino[4,5-b]indol-2(1H)-one] | 885 nM | 22.6 nM |
| CC1C(=O)NCCc2[nH]c3c(Cl)c(Cl)cc(NCCO)c3c21 (racemic) [Example 49, 7,8-Dichloro-10-((2-hydroxyethyl)amino)-1-methyl-3,4,5,6-tetrahydroazepino[4,5-b]indol-2(1H)-one] | 390 nM | 15 nM |
| CC1C(=O)NCCc2[nH]c3c(Cl)c(Cl)c(F)c(NCCO)c3c21 (racemic) [Example 52, 7,8-Dichloro-9-fluoro-10-((2-hydroxyethyl)amino)-1-methyl-3,4,5,6-tetrahydroazepino[4,5-b]indol-2(1H)-one] | 2220 nM | 29.1 nM |
| CC1C(=O)NCCc2[nH]c3c(Cl)c(Cl)cc(NC4COC4)c3c21 (racemic) [Example 60, 7,8-Dichloro-1-methyl-10-(oxetan-3-ylamino)-3,4,5,6-tetrahydroazepino[4,5-b]indol-2(1H)-one] | 974 nM | 53.3 nM |
| CC1C(=O)NCCc2[nH]c3c(Cl)c(Cl)cc(OCC(F)F)c3c21 (racemic) [Example 76, 7,8-Dichloro-10-(2,2-difluoroethoxy)-1-methyl-3,4,5,6-tetrahydroazepino[4,5-b]indol-2(1H)-one] | 1470 nM | 38.6 nM |
| CC1C(=O)NCCc2c1c1c(NCCO)cc(Cl)c(Cl)c1n2C(F)F (racemic) [Example 140, 7,8-Dichloro-6-(difluoromethyl)-10-((2-hydroxyethyl)amino)-1-methyl-3,4,5,6-tetrahydroazepino[4,5-b]indol-2(1H)-one] | 1280 nM | 16.4 nM |
| C[C@H]1CNC(=O)[C@H](C)c2c1[nH]c1c(Cl)c(Cl)cc(NC(=O)CO)c21 (racemic) [Example 158, trans-N-(7,8-dichloro-1,5-dimethyl-2-oxo-1,2,3,4,5,6-hexahydroazepino[4,5-b]indol-10-yl)-2-hydroxyacetamide] | 341 nM | 19.7 nM |
| COCCC1CNC(=O)Cc2c1[nH]c1c(Cl)c(Cl)cc(-c3cnn(C)n3)c21 (racemic) [Example 166, 7,8-Dichloro-5-(2-methoxyethyl)-10-(2-methyl-2H-1,2,3-triazol-4-yl)-3,4,5,6-tetrahydroazepino[4,5-b]indol-2(1H)-one] | 1020 nM | 20.7 nM |
| COCC[C@@H]1CNC(=O)[C@@H](C)c2c1[nH]c1c(Cl)c(Cl)cc(NCCO)c21 (racemic) [Example 169, trans-7,8-Dichloro-10-((2-hydroxyethyl)amino)-5-(2-methoxyethyl)-1-methyl-3,4,5,6-tetrahydroazepino[4,5-b]indol-2(1H)-one] | 1130 nM | 26.2 nM |
| COCC[C@@H]1CNC(=O)[C@H](C)c2c1[nH]c1c(Cl)c(Cl)cc(NCCO)c21 (racemic) [Example 170, cis 7,8-Dichloro-10-((2-hydroxyethyl)amino)-5-(2-methoxyethyl)-1-methyl-3,4,5,6-tetrahydroazepino[4,5-b]indol-2(1H)-one] | 473 nM | 27.7 nM |
| Cn1ncc(-c2cc(Cl)c(Cl)c3[nH]c4c(c23)CC(=O)NCC4CCC(F)F)n1 (racemic) [Example 177, 7,8-Dichloro-5-(3,3-difluoropropyl)-10-(2-methyl-2H-1,2,3-triazol-4-yl)-3,4,5,6-tetrahydroazepino[4,5-b]indol-2(1H)-one] | 841 nM | 23.1 nM |
| C[C@@H]1CNC(=O)[C@H](C)c2c1[nH]c1c(Cl)c(Cl)cc(NC(=O)CO)c21 (relative stereo) [Example 159, cis-N-(7,8-dichloro-1,5-dimethyl-2-oxo-1,2,3,4,5,6-hexahydroazepino[4,5-b]indol-10-yl)-2-hydroxyacetamide] | 1390 nM | 60.6 nM |
| Cn1ncc(-c2cc(Cl)c(Cl)c3[nH]c4c(c23)CC(=O)NC[C@H]4CCO)n1 (single isomer, unassigned) [Example 8A] | 168 nM | 15.6 nM |
| Cn1ncc(-c2cc(Cl)c(Cl)c3[nH]c4c(c23)CC(=O)NC[C@H]4CCO)n1 (single isomer, unassigned) [Example 8B] | 3140 nM | 214 nM |
| C[C@@H]1C(=O)NCCc2[nH]c3c(Cl)c(Cl)cc(NC(=O)CO)c3c21 (single isomer, unassigned) [Example 12A] | 356 nM | 16.3 nM |
| C[C@@H]1C(=O)NCCc2[nH]c3c(Cl)c(Cl)cc(NC(=O)CO)c3c21 (single isomer, unassigned) [Example 12B] | 1700 nM | 748 nM |
| C[C@@H]1C(=O)NCCc2[nH]c3c(Cl)c(Cl)cc(OCCCO)c3c21 (single isomer, unassigned) [Example 14A] | 344 nM | 7.3 nM |
| C[C@@H]1C(=O)NCCc2[nH]c3c(Cl)c(Cl)cc(OCCCO)c3c21 (single isomer, unassigned) [Example 14B] | 4450 nM | 302 nM |
| Cn1ccc(-c2cc(Cl)c(Cl)c3[nH]c4c(c23)CC(=O)NCC4)n1 [Example 3, 7,8-Dichloro-10-(1-methyl-1H-pyrazol-3-yl)-3,4,5,6-tetrahydroazepino[4,5-b]indol-2(1H)-one] |  | 111 nM |
| Cn1c2c(c3c(OCC#N)cc(Cl)c(Cl)c31)CC(=O)NCC2 [Example 21, 2-((7,8-Dichloro-6-methyl-2-oxo-1,2,3,4,5,6-hexahydroazepino[4,5-b]indol-10-yl)oxy)acetonitrile] |  | 141 nM |
